From patent US6211214A, “Biphenyl ether oxazolines and their use as pest-control agents” (Bayer Aktiengesellschaft, priority 1995, dated 2001)
Read-outs that look alike come from different tables or passages of the source.

What was measured:
[1] = test system: caterpillars of the owlet moth (Spodoptera frugiperda); test: Spodoptera frugiperda test (cabbage leaves dipped); assay type: in vivo; conditions: after 7 days, 0.1% active compound; for mortality at 0.1 % strength: Spodoptera frugiperda, 168 h, read-out: destruction
Method: Spodoptera Frugiperda-Test Solvent: 7 parts by weight of dimethylformamide Emulsifier: 1 part by weight of alkylaryl polyglycol ether To produce a suitable preparation of active compound, 1 part by weight of active compound is mixed with the stated amount of solvent and the stated amount of emulsifier, and the concentrate is diluted with water to the desired concentration. Cabbage leaves (Brassica oleracea) are treated by being dipped into the preparation of active compound of the desired concentration and are infested with caterpillars of the owlet moth (Spodoptera frugiperda), as long as the leaves are still moist.

[2] = test system: mustard beetle larvae (Phaedon cochleariae); test: Phaedon larvae test (cabbage leaves dipped); assay type: in vivo; conditions: after 7 days, 0.01% active compound; for mortality at 0.01 % strength: Phaedon cochleariae, 168 h, read-out: destruction
Method: Phaedon Larvae Test Solvent: 7 parts by weight of dimethylformamide Emulsifier: 1 part by weight of alkylaryl polyglycol ether To produce a suitable preparation of active compound, 1 part by weight of active compound is mixed with the stated amount of solvent and the stated amount of emulsifier, and the concentrate is diluted with water to the desired concentration. Cabbage leaves (Brassica oleracea) are treated by being dipped into the preparation of the active compound of the desired concentration and are infested with mustard beetle larvae (Phaedon cochleariae), as long as the leaves are still moist.

[3] = test system: caterpillars of the diamond-back moth (Plutella maculipennis); test: Plutella test (cabbage leaves dipped); assay type: in vivo; conditions: 168 h, after 7 days, 0.0001% active compound, read-out: destruction
Method: (§1) Solvent: 7 parts by weight of dimethylformamide
(§2) Emulsifier: 1 part by weight of alkylaryl polyglycol ether
To produce a suitable preparation of active compound, 1 part by weight of active compound is mixed with the stated amount of solvent and the stated amount of emulsifier, and the concentrate is diluted with water to the desired concentration.
Cabbage leaves (Brassica oleracea) are treated by being dipped into the preparation of active compound of the desired concentration and are infested with caterpillars of the diamond-back moth (Plutella maculipennis) while the leaves are still moist.
After the desired time, the destruction in % is determined. 100% means that all the caterpillars have been killed; 0% means that none of the caterpillars have been killed.

[4] = test system: green peach aphid (Myzus persicae); test: Myzus test (infested broad bean seedlings dipped); assay type: in vivo; conditions: 144 h, after 6 days, 0.01% active compound, read-out: destruction
Method: as §1, §2
To produce a suitable preparation of active compound, 1 part by weight of active compound is mixed with the stated amount of solvent and the stated amount of emulsifier and the concentrate is diluted with water to the desired concentration.
Seedlings of broad beans (Vicia faba) infested by the green peach aphid (Myzus persicae) are dipped into the preparation of active compound of the desired concentration and placed in a plastic container.
After the desired time, the destruction in % is determined. 100% means that all the aphids have been killed; 0% means that none of the aphids has been killed.

[5] = test system: two-spotted spider mite (Tetranychus urticae); test: Tetranychus test (OP-resistant/dipping treatment); assay type: in vivo; conditions: 312 h, read-out: destruction
Method: Tetranychus Test (OP-resistant/dipping treatment)
as §1, §2
To produce a suitable preparation of active compound, 1 part by weight of active compound is mixed with the stated amount of solvent and the stated amount of emulsifier, and the concentrate is diluted with emulsifier-containing water to the desired concentrations.
Bean plants (Phaseolus vulgaris) which are heavily infested with all stages of the two-spotted spider mite (Tetranychus urticae) are treated by being dipped into a preparation of the active compound of the desired concentration.
After the desired time, the effect in % is determined. 100% means that all the spider mites have been killed; 0% means that none of the spider mites have been killed.

[6] = log p (partition coefficient octanol/water, determined experimentally from reversed phase HPLC); assay type: physicochemical; conditions: reversed phase hplc
Text: [log p=logarithm of the partition coefficient p of the substance between the solvents octanol and water, determined experimentally from reversed phase HPLC]

Compound | destruction [1] | destruction [2] | mortality at 0.0001 % strength [3] | mortality at 0.01 % strength [4] | mortality at 0.001 % strength ([5]; after 13 days, 0.001% active compound) | mortality at 0.1 % strength [1] | mortality at 0.01 % strength [2] | mortality at 0.001 % strength [5] | chromatographic logP [6]
COc1ccc(-c2ccc(C3COC(c4c(F)cccc4F)=N3)cc2)cc1 (stereo not shown) [(A), reference compound] | no destruction | no destruction | 5% | 5% | 45% |  |  |  | 
O=C(COc1ccc(-c2ccc(C3COC(c4c(F)cccc4F)=N3)cc2)cc1)c1ccccc1 (stereo not shown) [Example 1, 2-(2,6-difluorophenyl)-4-(4'-benzoylmethoxy-biphenyl-4-yl)-1,3-oxazoline] |  |  |  |  |  | 100% | 100% | 98% | 
CON=C(COc1ccc(-c2ccc(C3COC(c4c(F)cccc4F)=N3)cc2)cc1)c1ccccc1 (stereo not shown) [Example 2] |  |  | 100% |  |  | 100% | 100% | 98% | 5.01
CC(C#N)Oc1ccc(-c2ccc(C3COC(c4c(F)cccc4F)=N3)cc2)cc1 (stereo not shown) [Example 4, 2-(2,6-difluorophenyl)-4-[4'-(2-propionitriloxy)-biphenyl-4-yl]-1,3-oxazoline] |  |  | 100% |  |  | 100% | 100% |  | 
